Test results reported in US6849596B1, “Regulatory/unfolding peptides of ezrin” (priority 1999, dated 2005).
“Also recorded” adds a separate entry of the source. Where no end group is shown, it is not given here.

What was measured:
[1] = Animal toxicology and pre-clinical testing of HEP1; settings: rat and rabbit
[2] = tested on: transplanted sarcoma of the uterus SM-322; experiment: Transplanted mouse sarcoma SM-322 model; format: in vivo, CBA mice; settings: control 12-16
[3] = tested on: transplanted cervical cancer CUC-5; experiment: Transplanted mouse cervical cancer model CUC-5; format: in vivo, CBA mice; settings: for Percent decrease in tumour volume relative to control / Days of life expectancy: CUC-5; for Days of life expectancy: control 47-76
From the text: Anticancer Activity of Hepreceptor Peptides on the Growth of Transplanted Sarcoma of the Uterus SM-322 and on Cancer of the Uterine Cervix CUS-5 Performed in CBA Mice Using Rupe312 and Rupe414 as Examples
Transplanted mouse cervical cancer model CUC-5 (epithelial tumour)
Primary tumours were induced in female mice using methylcholantrene. A few primary turnouts were then auto-transplanted into the uterine cervix. The life expectancy of mice with transplanted tumours was 43 days.
CBA female mice weighed 21.4=/−1.2 g. and were 2-3 months old. The tumours were introduced as a 0.5 ml of tumour suspension (1 g tumour per 10 ml of Igla medium) and ten mice used in each treatment group.
Lyophylised peptide were dissolved in sterile physiological saline immediately before use in three concentrations. 0.5 ml of solution was injected twice weekly into the peritoneum of the mice for the duration of the experiment. Three different concentrations of peptide were used leading to three final doses per injection per mouse of 10, 1.0 and 0.1 micrograms.
The average percent decrease of tumour volume relative to the control group was recorded at three time points. The longevity of the mice in the treatment groups and control groups was compared and the histology of the tumours between control and treatment groups was compared.

[4] = tested on: human Peripheral Blood Mononuclear Cells; experiment: In vitro activation of human PBMC, tritiated thymidine incorporation; format: cell-based; settings: for incorporation of 3H thymidine: three days, Control 370
Protocol: Peripheral Blood Mononuclear Cells (PBMC) were separated from the peripheral blood of a […] donor using the standard method of fractionation in a ficoll gradient. The PBMC were suspended in culture medium containing RPMI1640 medium plus 10% fetal calf serum, 1 mM L-glutamin and antibiotics (BM). The cell suspension was placed in wells of a 96 hole microwell plate for cell cultivation, (100 microliters of suspension containing 100,000 cells per well). […] The negative control well contained BM but no peptide. The plate was incubated at 37° C. for three days then radioactive ^3H thymidine was added to a final concentration of 1 microcurie per ml. The incorporation of ^3H thymidine into the DNA of the cells was measured using a betacounter using standard procedures. The experiment was repeated twice and the results expressed as an average of the two experiments in radioactive counts per minute.

[5] = tested on: transplanted sarcoma of the uterus SM-322; experiment: Transplanted mouse sarcoma SM-322 model; format: in vivo, CBA mice; settings: for Percent decrease in tumour volume relative to control: SM-322
From the text: Anticancer Activity of Hepreceptor Peptides on the Growth of Transplanted Sarcoma of the Uterus SM-322 and on Cancer of the Uterine Cervix CUS-5 Performed in CBA Mice Using Rupe312 and Rupe414 as Examples Transplanted mouse sarcoma SM-322 model (endothelial tumour). Primary tumours of the uterus were induced in female mice using 1.2 dimethylhydrazine. A few primary tumours were transplanted into syngeneic mice. The first visible nodules started to appear at the point of transplation after 4 days. The life expectancy of the mice with transplanted tumours was 22-24 days. […] The tumours were introduced as a 0.5 ml of tumour suspension (1 g tumour per 10 ml of Igla medium) and ten mice used in each treatment group. […] The average percent decrease of tumour volume relative to the control group was recorded at three time points. The longevity of the mice in the treatment groups and control groups was compared and the histology of the tumours between control and treatment groups was compared.

activated macrophages = experiment: Induction of activated macrophages in mice (peritoneal exsudate); format: in vivo
Protocol: Groups of three mice (CDAxC57B1)F1 weighing 22-24 g were injected abdominally with each peptide solution of 1.0 microgram of peptide dissolved in 0.5 ml of physiological saline. After 24 hours the animals were killed using neck vertebrae dislocation and 5 ml of Hanks solution was injected into the abdomen. The abdomen was massaged for 30 seconds and then the peritoneal liquid was collected. The collected liquid was filtered using a nylon filter into siliconised tubes containing 1.5 mg/ml EDTA. The number of nucleus containing cells in […] of filtrate were then assessed under microscopic examination using a Nihon hemocytometer. The cells were pelleted by centrifugation for 5 minutes at 800 g, the pellet was resuspended in fetal calf serum, the cell suspension was dropped on to a glass microscope slide and dried then fixed in methanol and stained with Romanovski's colouring agent. Morphological analysis of the cells of the peritoneal exsudate were performed using an Opton optical microscope at 1600 magnifications. The number of lymphocytes, resting macrophages, activated macrophages, granulocytes and other cell types were assessed.

[6] = tested on: HLA Class I on human White Blood Cells; experiment: Expression of MHC (HLA) Class I on human White Blood Cells; format: cell-based; settings: 0.003 micrograms per ml
From the text: A cell specific effect of this activation was an increase in the population of monocytes expressing MHC Class I and a decrease in the population of CD8 lymphocytes expressing MHC Class I.

[7] = 0.1 Microg/mouse IP twice weekly
[8] = 10 Microg/mouse IP twice weekly
[9] = 0.1 Microg/mouse IP twice weekly, Day 8
[10] = 0.1 Microg/mouse IP twice weekly, Day 12
[11] = 1 Microg/mouse IP twice weekly, Day 8
[12] = 1 Microg/mouse IP twice weekly, Day 12
[13] = 10 Microg/mouse IP twice weekly, Day 8
[14] = 10 Microg/mouse IP twice weekly, Day 12

TEKKRRETVEREKE [HEP1, TEKKRRETVEREKE]
Chronic toxicity [1]: negative | Effect of 1000× therapeutic dose [1]: negative | Embryotoxicity [1]: negative | Influence on CNS and HVS [1]: negative | Local Irritation [1]: negative | Mutagenic effects [1]: negative | Sub-acute toxicity [1]: negative | Preliminary evaluation of toxicity ([1]; pharmaceutical grade HEP1): negative

KRRETVEREKE (Hepreceptor peptide) [Rupe414]
Days of life expectancy [2, 7]: 12 to 19 days | Days of life expectancy ([2]; 1 Microg/mouse IP twice weekly): 12 to 20 days | Days of life expectancy [2, 8]: 13 to 20 days | Percent decrease in tumour volume relative to control [3, 9]: 50% | Percent decrease in tumour volume relative to control [3, 10]: 18% | Percent decrease in tumour volume relative to control ([3]; 0.1 Microg/mouse IP twice weekly, Day 19): 57% | Days of life expectancy [3, 7]: 47 to 76 days | Percent decrease in tumour volume relative to control [3, 11]: 50% | Percent decrease in tumour volume relative to control [3, 12]: 16% | Percent decrease in tumour volume relative to control ([3]; 1 Microg/mouse IP twice weekly, Day 19): 43% | Days of life expectancy ([3]; 1 Microg/mouse IP twice weekly): 36 to 76 days | Percent decrease in tumour volume relative to control [3, 13]: 50% | Percent decrease in tumour volume relative to control [3, 14]: 16% | Percent decrease in tumour volume relative to control ([3]; 10 Microg/mouse IP twice weekly, Day 19): 48% | Days of life expectancy [3, 8]: 36 to 76 days | change in life expectancy ([3]; slower growing transplanted cervical cancer): no significant increase (or decrease) in life expectancy was detected | activity relative to HEP1 ([4]; PBMC activation, thymidine incorporation): significantly more active than HEP1; also recorded: ten fold higher activity than HEP1 | concentration of peak activity ([4]; PBMC proliferation): around 3 nanograms/ml | incorporation of 3H thymidine ([4]; Peptide 0.0001 micro g/ml): 493 radioactive counts per minute | incorporation of 3H thymidine ([4]; Peptide 0.0003 micro g/ml): 580 radioactive counts per minute | incorporation of 3H thymidine ([4]; Peptide 0.001 micro g/ml): 684 radioactive counts per minute | incorporation of 3H thymidine ([4]; Peptide 0.003 micro g/ml): 2087 radioactive counts per minute | incorporation of 3H thymidine ([4]; Peptide 0.01 micro g/ml): 650 radioactive counts per minute | incorporation of 3H thymidine ([4]; Peptide 0.03 micro g/ml): 596 radioactive counts per minute | incorporation of 3H thymidine ([4]; Peptide 0.1 micro g/ml): 485 radioactive counts per minute | incorporation of 3H thymidine ([4]; Peptide 0.3 micro g/ml): 492 radioactive counts per minute | incorporation of 3H thymidine ([4]; Peptide 1 micro g/ml): 449 radioactive counts per minute | incorporation of 3H thymidine ([4]; Peptide 3 micro g/ml): 437 radioactive counts per minute | incorporation of 3H thymidine ([4]; Peptide 10 micro g/ml): 394 radioactive counts per minute | Percent decrease in tumour volume relative to control [5, 9]: 68% | Percent decrease in tumour volume relative to control [5, 10]: 39% | Percent decrease in tumour volume relative to control ([5]; 0.1 Microg/mouse IP twice weekly, Day 15): 22% | Percent decrease in tumour volume relative to control [5, 11]: 68% | Percent decrease in tumour volume relative to control [5, 12]: 28% | Percent decrease in tumour volume relative to control ([5]; 1 Microg/mouse IP twice weekly, Day 15): 43% | Percent decrease in tumour volume relative to control [5, 13]: 65% | Percent decrease in tumour volume relative to control [5, 14]: 43% | Percent decrease in tumour volume relative to control ([5]; 10 Microg/mouse IP twice weekly, Day 15): 43% | histology of the tumours ([5]; both models (SM-322 and CUC-5)): non bleeding ulcerous destruction of the centre of tumours | activity in increasing activated macrophages relative to HEP1 (activated macrophages; 1.0 microgram peptide/mouse): significantly more active than HEP1 | Activated macrophages as a percent of total number of cells (activated macrophages; 1.0 microgram peptide/mouse injected abdominally, after 24 hours, saline 1.9): 8.5% | relative activity in lowering intensity of HLA expression on WBC ([6]; 24 hours): more active than HEP1 | Density of cell surface expression of HLA Class I, rebased to 100 for control ([6]; B and NK cells, 24 hours): 77 | Percentage of cell population expressing HLA Class I, rebased to 100 for control ([6]; B and NK cells, 24 hours): 101 | Density of cell surface expression of HLA Class I, rebased to 100 for control ([6]; CD4 lymphocytes, 24 hours): 77 | Percentage of cell population expressing HLA Class I, rebased to 100 for control ([6]; CD4 lymphocytes, 24 hours): 105 | Density of cell surface expression of HLA Class I, rebased to 100 for control ([6]; CD8 lymphocytes, 24 hours): 76 | Percentage of cell population expressing HLA Class I, rebased to 100 for control ([6]; CD8 lymphocytes, 24 hours): 89 | Density of cell surface expression of HLA Class I, rebased to 100 for control ([6]; Granulocytes, 24 hours): 85 | Percentage of cell population expressing HLA Class I, rebased to 100 for control ([6]; Granulocytes, 24 hours): 98 | Percentage of cell population expressing HLA Class I, rebased to 100 for control ([6]; Monocytes/Macrophages, 24 hours): 109 | Density of cell surface expression of HLA Class I, rebased to 100 for control ([6]; Monocytes/Macrophages, 24 hours at 37° C.): 83
